Usually melting point stands for the temperature, or range, at which the solid turns liquid.

Data on two compounds can be found in US7329670B1, “Inhibition of RAF kinase using aryl and heteroaryl substituted heterocyclic ureas” (Bayer Pharmaceuticals Corporation, priority 1997, dated 2008).

`CC(C)(C)c1cc(NC(=O)Nc2cccc(Cl)c2Cl)c(-c2ccncc2)o1` [Entry 40, N-(2-(4-Pyridinyl)-5-tert-butyl-3-furyl)-N′-(2,3-dichlorophenyl)urea] displayed a melting point of 195 to 198 °C.
For `CC(C)(C)c1cc(NC(=O)Nc2cccc(Cl)c2Cl)c(-c2ccccc2)s1` [Entry 41, N-(2-Phenyl-5-tert-butyl-3-thienyl)-N′-(2,3-dichlorophenyl)urea], the melting point fell in the range of 171 to 173 °C.
